The source of these data is patent publication US9290551B2, “Compounds for treating papilloma virus infection” (NanoVir, LLC, priority 2012, dated 2016).

The test system of the assay is HPV 16. Briefly: HPV 16 episome DNA levels in W12E cells by Q-PCR (Taqman). In kind it is cell-based, Human papilloma virus. The note with it: for IC50: effective (pseudo) IC50, 50% reduction in HPV DNA relative to vehicle (0.1% DMSO), read-out: HPV-16 IC50. As for the experimental part: Cells maintaining HPV 16 DNA were cultured for 72 hours in the presence of cidofovir, interferon γ or polyamide. Viral DNA was then quantified using real-time PCR and compared to vehicle (DMSO)-treated control cultures.
Compounds were initially tested for effects on HPV 16 episome DNA levels in W12E cells by Q-PCR (Taqman™) over 3 concentration ranges (0.1, 1 and 10 μM). W12E cells are a cervical keratinocyte cell line originally identified by M. Stanley (Cambridge University), and later optimized and provided by P. Lambert (U. of Wisconsin). […] In all cases (initial tests and follow-up IC50 tests), dose testing was performed in triplicate. […] Furthermore, all experiments were conducted in triplicate, multiple times. The data were then combined, pseudo or effective IC50 values calculated, and variance determined to reveal the fit of the data to the model and its reliability.
Keratinocytes that maintain HPV 16 episomes were treated with increasing concentrations of polyamides.

Consider `CN(C)CCCNC(=O)CCNC(=O)c1cc(NC(=O)c2cc(NC(=O)c3cc(NC(=O)CCNC(=O)c4cc(NC(=O)c5cc(NC(=O)c6cc(NC(=O)CCCNC(=O)c7cc(NC(=O)c8cc(NC(=O)CCNC(=O)c9cc(NC(=O)c%10cc(NC(=O)c%11cc(NC(=O)c%12nccn%12C)cn%11C)cn%10C)cn9C)cn8C)cn7C)cn6C)cn5C)cn4C)cn3C)cn2C)cn1C` [Polyamide 1002, ImPPPβPPγPPPβPPPβDp], for which the IC50 is greater than 10 µM.
On the same count and under the same terms, in the case of `CN(CCCN)CCCNC(=O)CCNC(=O)c1cc(NC(=O)c2cc(NC(=O)c3cc(NC(=O)c4cc(NC(=O)c5cc(NC(=O)CCCNC(=O)c6cc(NC(=O)c7cc(NC(=O)c8cc(NC(=O)c9cc(NC(=O)c%10nccn%10C)cn9C)cn8C)cn7C)cn6C)cn5C)cn4C)cn3C)cn2C)cn1C` [Polyamide 1005, ImPPPPγPPPPPβTa] it was greater than 10 µM.
For `CN(CCCN)CCCNC(=O)CCNC(=O)c1cc(NC(=O)c2cc(NC(=O)c3cc(NC(=O)c4cc(NC(=O)c5cc(NC(=O)[C@H](N)CCNC(=O)c6cc(NC(=O)c7cc(NC(=O)c8cc(NC(=O)c9cc(NC(=O)c%10nccn%10C)cn9C)cn8C)cn7C)cn6C)cn5C)cn4C)cn3C)cn2C)cn1C` [Polyamide 1006, ImPPPPγNH2PPPPPβTa], the “antiviral activity in this study” value was “inactive” and the IC50 is greater than 10 µM.
For `CN(C)CCCNC(=O)CCNC(=O)c1cc(NC(=O)c2cc(NC(=O)c3cc(NC(=O)c4cc(NC(=O)c5cc(NC(=O)CCCNC(=O)c6cc(NC(=O)c7cc(NC(=O)c8cc(NC(=O)c9cc(NC(=O)c%10nccn%10C)cn9C)cn8C)cn7C)cn6C)cn5C)cn4C)cn3C)cn2C)cn1C` [Polyamide 1010, ImPPPPγPPPPPβDp], the IC50 was greater than 10 µM.
As for `CN(C)CCCNC(=O)CCNC(=O)c1cc(NC(=O)c2cc(NC(=O)c3cc(NC(=O)c4cc(NC(=O)CCCNC(=O)c5nc(NC(=O)c6cc(NC(=O)c7cc(NC(=O)c8nccn8C)cn7C)cn6C)cn5C)cn4C)cn3C)cn2C)cn1C` [Polyamide 1011, ImPPIγPPPPβDp], the IC50 was greater than 10 µM.
Same read-out and setting: the same measure for `CN(C)CCCNC(=O)CCNC(=O)c1cc(NC(=O)c2cc(NC(=O)c3cc(NC(=O)c4nc(NC(=O)CCCNC(=O)c5cc(NC(=O)c6nc(NC(=O)c7nc(NC(=O)c8nccn8C)cn7C)cn6C)cn5C)cn4C)cn3C)cn2C)cn1C` [Polyamide 1012, ImIIPγIPPPβDp]: greater than 10 µM; for `CN(C)CCCNC(=O)CCNC(=O)c1cc(NC(=O)c2nc(NC(=O)c3cc(NC(=O)c4cc(NC(=O)CCCNC(=O)c5cc(NC(=O)c6cc(NC(=O)c7cc(NC(=O)c8nccn8C)cn7C)cn6C)cn5C)cn4C)cn3C)cn2C)cn1C` [Polyamide 1013, ImPPPγPPIPβDp]: greater than 10 µM.
Same read-out and setting: in the case of `CN(C)CCCNC(=O)CCNC(=O)c1cc(NC(=O)c2cc(NC(=O)c3cc(NC(=O)c4nc(NC(=O)CCCNC(=O)c5cc(NC(=O)c6nc(NC(=O)CCNC(=O)c7nccn7C)cn6C)cn5C)cn4C)cn3C)cn2C)cn1C` [Polyamide 1014, ImβIPγIPPPβDp] it was greater than 10 µM; in that of `CN(C)CCCNC(=O)CCNC(=O)c1cc(NC(=O)c2cc(NC(=O)c3cc(NC(=O)c4cc(NC(=O)CCCNC(=O)c5cc(NC(=O)c6nc(NC(=O)CCNC(=O)c7nccn7C)cn6C)cn5C)cn4C)cn3C)cn2C)cn1C` [Polyamide 1015, ImβIPγPPPPβDp], greater than 10 µM; in that of `CN(C)CCCNC(=O)CCNC(=O)c1cc(NC(=O)c2cc(NC(=O)c3cc(NC(=O)c4cc(NC(=O)c5cc(NC(=O)CCCNC(=O)c6cc(NC(=O)c7nc(NC(=O)c8nc(NC(=O)CCNC(=O)c9nccn9C)cn8C)cn7C)cn6C)cn5C)cn4C)cn3C)cn2C)cn1C` [Polyamide 1016, ImβIIPγPPPPPβDp], greater than 10 µM.
The same measure, in the same setting: in the case of `CN(C)CCCNC(=O)CCNC(=O)c1cc(NC(=O)c2nc(NC(=O)c3nc(NC(=O)c4cc(NC(=O)CCCNC(=O)c5nc(NC(=O)c6cc(NC(=O)c7cc(NC(=O)c8nccn8C)cn7C)cn6C)cn5C)cn4C)cn3C)cn2C)cn1C` [Polyamide 1017, ImPPIγPIIPβDp] it was greater than 10 µM; in that of `CN(C)CCCNC(=O)CCNC(=O)c1cc(NC(=O)c2nc(NC(=O)c3cc(NC(=O)c4cc(NC(=O)c5nc(NC(=O)CCCNC(=O)c6cc(NC(=O)c7cc(NC(=O)c8nc(NC(=O)CCNC(=O)c9nccn9C)cn8C)cn7C)cn6C)cn5C)cn4C)cn3C)cn2C)cn1C` [Polyamide 1018, ImβIPPγIPPIPβDp], greater than 10 µM; in that of `CN(C)CCCNC(=O)CCNC(=O)c1cc(NC(=O)c2cc(NC(=O)c3nc(NC(=O)c4cc(NC(=O)c5nc(NC(=O)CCCNC(=O)c6cc(NC(=O)c7nc(NC(=O)c8cc(NC(=O)c9cc(NC(=O)c%10nccn%10C)cn9C)cn8C)cn7C)cn6C)cn5C)cn4C)cn3C)cn2C)cn1C` [Polyamide 1019, ImPPIPγIPIPPβDp], greater than 10 µM.
As for `CN(C)CCCNC(=O)CCNC(=O)c1cc(NC(=O)c2cc(NC(=O)c3nc(NC(=O)c4cc(NC(=O)CCCNC(=O)c5nc(NC(=O)c6cc(NC(=O)c7nc(NC(=O)c8nccn8C)cn7C)cn6C)cn5C)cn4C)cn3C)cn2C)cn1C` [Polyamide 1021, ImIPIγPIPPβDp], the IC50 is greater than 10 µM.
Still for that read-out and setting: in the case of `CN(C)CCCNC(=O)CCNC(=O)CCNC(=O)c1cc(NC(=O)c2cc(NC(=O)c3cc(NC(=O)CCNC(=O)c4cc(NC(=O)c5cc(NC(=O)c6cc(NC(=O)CCCNC(=O)c7cc(NC(=O)c8cc(NC(=O)c9cc(NC(=O)CCNC(=O)c%10cc(NC(=O)c%11cc(NC(=O)c%12cc(NC(=O)c%13nccn%13C)cn%12C)cn%11C)cn%10C)cn9C)cn8C)cn7C)cn6C)cn5C)cn4C)cn3C)cn2C)cn1C` [Polyamide 1025, ImPPPβPPPγPPPβPPPββDp] it was greater than 10 µM; in that of `CN(C)CCCNC(=O)CCNC(=O)c1cc(NC(=O)c2cc(NC(=O)c3cc(NC(=O)c4cc(NC=O)cn4C)cn3C)cn2C)cn1C` [Polyamide 1038, OHC-PPPPβDp], greater than 10 µM.
On the same count and under the same terms, the same measure for `CN(C)CCCNC(=O)CCNC(=O)c1cc(NC(=O)c2cc(NC(=O)c3cc(NC(=O)c4cc(NC(=O)c5cc(NC(=O)c6cc(NC=O)cn6C)cn5C)cn4C)cn3C)cn2C)cn1C` [Polyamide 1039, OHC-PPPPPPβDp]: greater than 10 µM.
On the same count and under the same terms, the same measure for `CN(C)CCCNC(=O)CCNC(=O)c1cc(NC(=O)c2cc(NC(=O)c3cc(NC(=O)CCNC(=O)c4cc(NC(=O)c5cc(NC(=O)c6cc(NC(=O)CCNC(=O)c7cc(NC(=O)CCNC(=O)CCCNC(=O)c8nc(NC(=O)c9cc(NC(=O)c%10cc(NC(=O)CCNC(=O)c%11cc(NC(=O)c%12nc(NC(=O)c%13cc(NC(=O)CCNC(=O)c%14cc(NC(=O)c%15cc(NC(=O)c%16nccn%16C)cn%15C)cn%14C)cn%13C)cn%12C)cn%11C)cn%10C)cn9C)cn8C)cn7C)cn6C)cn5C)cn4C)cn3C)cn2C)cn1C` [Polyamide 1041, ImPPβPIPβPPIγβPβPPPβPPPβDp]: greater than 10 µM; for `CN(C)CCCNC(=O)c1cc(NC(=O)c2cc(NC(=O)CCNC(=O)c3cc(NC(=O)c4cc(NC(=O)c5cc(NC(=O)CCNC(=O)c6cc(NC(=O)c7cc(NC(=O)CCCNC(=O)CCNC(=O)c8cc(NC(=O)c9cc(NC(=O)CCNC(=O)c%10cc(NC(=O)c%11cc(NC(=O)c%12cc(NC(=O)c%13nccn%13C)cn%12C)cn%11C)cn%10C)cn9C)cn8C)cn7C)cn6C)cn5C)cn4C)cn3C)cn2C)cn1C` [Polyamide 1056, ImPPPβPPβγPPβPPPβPPDp]: greater than 10 µM; for ImPPPPγPPPPPβTa-BOFLX [Polyamide 1008]: greater than 10 µM.
As to ImPPPPγPPPPPβTa-FITC [Polyamide 1007], the IC50 was greater than 10 µM.
